Assay results as given in PubChem BioAssay (NCI).
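Grown in 96-well plates, cells were treated for 48 hours with each compound at five concentrations. Insufficient inhibition: endpoint recorded as highest concentration tested. TGI is the concentration that stops growth completely.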

Assays:
Experiment in all cases: growth of human tumour cells (NCI), 48 h
ACHN renal = test system: ACHN renal
DMS 114 small cell lung = test system: DMS 114 small cell lung
NCI-H23 lung = test system: NCI-H23 lung
DMS 273 small cell lung = test system: DMS 273 small cell lung
U251 CNS = test system: U251 CNS
XF 498 CNS = test system: XF 498 CNS
CAKI-1 renal = test system: CAKI-1 renal
OVCAR-8 ovarian = test system: OVCAR-8 ovarian
IGROV1 ovarian = test system: IGROV1 ovarian
HCT-116 colon = test system: HCT-116 colon
SK-MEL-2 melanoma = test system: SK-MEL-2 melanoma
SR leukemia = test system: SR leukemia
LOX IMVI melanoma = test system: LOX IMVI melanoma
M19-MEL melanoma = test system: M19-MEL melanoma
SK-MEL-28 melanoma = test system: SK-MEL-28 melanoma
SW-620 colon = test system: SW-620 colon
TK-10 renal = test system: TK-10 renal
OVCAR-4 ovarian = test system: OVCAR-4 ovarian
A549 NSCLC = test system: A549 NSCLC
RXF 393 renal = test system: RXF 393 renal
HT29 colon = test system: HT29 colon
HCT-15 colon = test system: HCT-15 colon
EKVX NSCLC = test system: EKVX NSCLC
CCRF-CEM leukemia = test system: CCRF-CEM leukemia
MALME-3M melanoma = test system: MALME-3M melanoma
SF-295 CNS = test system: SF-295 CNS
OVCAR-3 ovarian = test system: OVCAR-3 ovarian
KM12 colon = test system: KM12 colon
A498 renal = test system: A498 renal
SK-MEL-5 melanoma = test system: SK-MEL-5 melanoma
HOP-18 NSCLC = test system: HOP-18 NSCLC
COLO 205 colon = test system: COLO 205 colon
SNB-75 CNS = test system: SNB-75 CNS
UACC-62 melanoma = test system: UACC-62 melanoma
SF-268 CNS = test system: SF-268 CNS
HOP-92 NSCLC = test system: HOP-92 NSCLC
SNB-78 CNS = test system: SNB-78 CNS
NCI-H460 lung = test system: NCI-H460 lung
SN12C renal = test system: SN12C renal
SNB-19 CNS = test system: SNB-19 CNS
DLD-1 colon = test system: DLD-1 colon
HOP-62 NSCLC = test system: HOP-62 NSCLC
RPMI-8226 leukemia = test system: RPMI-8226 leukemia
SF-539 CNS = test system: SF-539 CNS
KM20L2 colon = test system: KM20L2 colon
K-562 leukemia = test system: K-562 leukemia
OVCAR-5 ovarian = test system: OVCAR-5 ovarian
UACC-257 melanoma = test system: UACC-257 melanoma
786-0 renal = test system: 786-0 renal
LXFL 529 NSCLC = test system: LXFL 529 NSCLC
NCI-H226 lung = test system: NCI-H226 lung
MOLT-4 leukemia = test system: MOLT-4 leukemia
M14 melanoma = test system: M14 melanoma
HL-60(TB) leukemia = test system: HL-60(TB) leukemia
UO-31 renal = test system: UO-31 renal
HCC-2998 colon = test system: HCC-2998 colon

## O=C1CCC2(c3ccccc3)OCC([C@@H](O)c3ccccc3)N12 (stereo partly drawn)
ACHN renal
  TGI: > 100 µM
DMS 114 small cell lung
  TGI: > 100 µM
NCI-H23 lung
  TGI: > 100 µM
DMS 273 small cell lung
  TGI: > 100 µM
U251 CNS
  TGI: > 100 µM
XF 498 CNS
  TGI: > 100 µM
CAKI-1 renal
  TGI: > 100 µM
OVCAR-8 ovarian
  TGI: > 100 µM
IGROV1 ovarian
  TGI: > 100 µM
HCT-116 colon
  TGI: > 100 µM
SK-MEL-2 melanoma
  TGI: > 100 µM
SR leukemia
  TGI: > 100 µM
LOX IMVI melanoma
  TGI: > 100 µM
M19-MEL melanoma
  TGI: > 100 µM
SK-MEL-28 melanoma
  TGI: > 100 µM
SW-620 colon
  TGI: > 100 µM
TK-10 renal
  TGI: > 100 µM
OVCAR-4 ovarian
  TGI: > 100 µM
A549 NSCLC
  TGI: > 100 µM
RXF 393 renal
  TGI: > 100 µM
HT29 colon
  TGI: > 100 µM
HCT-15 colon
  TGI: > 100 µM
EKVX NSCLC
  TGI: > 100 µM
CCRF-CEM leukemia
  TGI: > 100 µM
MALME-3M melanoma
  TGI: > 100 µM
SF-295 CNS
  TGI: > 100 µM
OVCAR-3 ovarian
  TGI: > 100 µM
KM12 colon
  TGI: > 100 µM
A498 renal
  TGI: > 100 µM
SK-MEL-5 melanoma
  TGI: > 100 µM
HOP-18 NSCLC
  TGI: > 100 µM
COLO 205 colon
  TGI: > 100 µM
SNB-75 CNS
  TGI: > 100 µM
UACC-62 melanoma
  TGI: > 100 µM
SF-268 CNS
  TGI: > 100 µM
HOP-92 NSCLC
  TGI: > 100 µM
SNB-78 CNS
  TGI: > 100 µM
NCI-H460 lung
  TGI: > 100 µM
SN12C renal
  TGI: > 100 µM
SNB-19 CNS
  TGI: > 100 µM
DLD-1 colon
  TGI: > 100 µM
HOP-62 NSCLC
  TGI: > 100 µM
RPMI-8226 leukemia
  TGI: > 100 µM
SF-539 CNS
  TGI: > 100 µM
KM20L2 colon
  TGI: > 100 µM
K-562 leukemia
  TGI: > 100 µM
OVCAR-5 ovarian
  TGI: > 100 µM
UACC-257 melanoma
  TGI: > 100 µM
786-0 renal
  TGI: > 100 µM

## CC1CN1c1c(C(=O)/C=C/c2ccc(F)cc2)c(-c2ccccc2)nn(C)c1=O (stereo not drawn)
LXFL 529 NSCLC
  TGI: 31.7 µM
NCI-H226 lung
  TGI: 25.3 µM
ACHN renal
  TGI: 36.3 µM
DMS 114 small cell lung
  TGI: 31.1 µM
NCI-H23 lung
  TGI: 27.1 µM
U251 CNS
  TGI: 28.9 µM
XF 498 CNS
  TGI: 28.8 µM
OVCAR-8 ovarian
  TGI: 27.6 µM
IGROV1 ovarian
  TGI: 40.2 µM
HCT-116 colon
  TGI: 27.3 µM
SK-MEL-2 melanoma
  TGI: 37.9 µM
LOX IMVI melanoma
  TGI: 26.9 µM
M19-MEL melanoma
  TGI: 27.7 µM
SK-MEL-28 melanoma
  TGI: 32 µM
SW-620 colon
  TGI: 32.7 µM
TK-10 renal
  TGI: 31 µM
OVCAR-4 ovarian
  TGI: 42.7 µM
A549 NSCLC
  TGI: 47.5 µM
RXF 393 renal
  TGI: 22 µM
HT29 colon
  TGI: 30.9 µM
EKVX NSCLC
  TGI: 33.4 µM
MOLT-4 leukemia
  TGI: 58.2 µM
CCRF-CEM leukemia
  TGI: 48.8 µM
MALME-3M melanoma
  TGI: 30 µM
SF-295 CNS
  TGI: 30.2 µM
OVCAR-3 ovarian
  TGI: 28.9 µM
M14 melanoma
  TGI: 30.5 µM
HL-60(TB) leukemia
  TGI: 43 µM
UO-31 renal
  TGI: 25.5 µM
KM12 colon
  TGI: 29.4 µM
SK-MEL-5 melanoma
  TGI: 29.5 µM
HOP-18 NSCLC
  TGI: 33.2 µM
COLO 205 colon
  TGI: 33 µM
SNB-75 CNS
  TGI: 28.7 µM
UACC-62 melanoma
  TGI: 27.6 µM
SF-268 CNS
  TGI: 30.4 µM
HOP-92 NSCLC
  TGI: 23.2 µM
SNB-78 CNS
  TGI: 67.3 µM
NCI-H460 lung
  TGI: 36.3 µM
HCC-2998 colon
  TGI: 28.7 µM
SN12C renal
  TGI: 29.1 µM
SNB-19 CNS
  TGI: 30.3 µM
DLD-1 colon
  TGI: 25.4 µM
HOP-62 NSCLC
  TGI: 38.9 µM
RPMI-8226 leukemia
  TGI: 32.2 µM
KM20L2 colon
  TGI: 31.6 µM
OVCAR-5 ovarian
  TGI: 25.2 µM
UACC-257 melanoma
  TGI: 27.4 µM
786-0 renal
  TGI: 29.2 µM
